{"source": "paper PMC2875737", "about": "“Determination of drug-like properties of a novel antileishmanial compound: In vitro absorption, distribution, metabolism, and excretion studies” (Indian Journal of Pharmacology, 2009)", "key": {"[1]": {"parameters": "method as in PMID 14567798, PMID 11841071", "details": "PBS pH 7.4; cited from earlier work"}, "physchem": {"experiment": "physchem", "details": "for solubility at 2 h: 25 °C, pH 7.4, aqueous buffer, kinetic from dmso stock", "procedure": "A 4 μl of 25 mM stock (DMSO) of S-4 was diluted to 200 μl with PBS (pH 7.4) and incubated at 25°C for 2 hours with constant shaking. The undissolved compound, if any, was filtered through the PVDF membrane filter (Millipore, MA). To 120 μl of the filtrate, 80 μl of acetonitrile was added and mixed thoroughly. The concentration of S-4 in the filtrate was determined spectrophotometrically from linearity (5-400μM) of the compound prepared in PBS containing 40% acetonitrile. The observed solubility result was multiplied by 200/120 to account for the acetonitrile addition in the test filtrate."}, "[2]": {"experiment": "Plasma protein binding by equilibrium dialysis", "details": "human", "procedure": "The binding of compound to human plasma was determined using equilibrium dialysis with 6-hour incubation with constant shaking at 37°C as per the method described by Kaplita and Liu.[4] The initial concentration of the compound used was 10 μM (DMSO ≤1%). Quantitations were done by HPLC."}, "human plasma protein": {"test_system": "human plasma protein", "parameters": "method as in PMID 14567798, PMID 11841071", "details": "cited from earlier work"}, "[3]": {"details": "PAMPA standards; cited from earlier work"}, "[4]": {"experiment": "Distribution coefficient (Log D) in octanol/PBS pH 7.4"}, "[5]": {"parameters": "method as in PMID 14567798, PMID 11841071", "details": "cited from earlier work"}, "[6]": {"details": "cited from earlier work"}, "[7]": {"experiment": "Distribution coefficient Log D in cyclohexane/PBS pH 7.4", "format": "physicochemical", "details": "PBS pH 7.4, average of three experiments", "procedure": "Log D in cyclohexane/PBS was performed following the similar method as done for Log D in octanol/PBS. Here, 5 mM compound stock was used to prevent precipitation problem with this system and volumes of cyclohexane were 150, 200, 400, and 800 μl."}, "Leishmania donovani [8]": {"test_system": "Leishmania donovani", "details": "cited from earlier work"}, "[9]": {"parameters": "method as in ref 11 = [11]; PMID 11937327; doi:10.1016/s0968-0896(02)00046-9; 11 Sahu NP Pal C Mandal NB Banerjee S Raha M Kundu AP Synthesis of a novel quinoline derivative, 2-(2-Methylquinolin-4ylamino)-N-phenylacetamide: A potential antileishmanial agent Bioorg Med Chem 2002", "details": "cited from earlier work"}, "rat liver microsomes": {"test_system": "rat liver microsomes", "experiment": "Metabolism by liver microsomal enzymes", "format": "in vitro ADME", "details": "rat liver microsomes 0.5 mg protein/ml, 10 μM, 1 hour, 37°C, NADPH regeneration system; ± SEM", "procedure": "Ethical clearance was obtained from Animal Ethics Committee of Indian Institute of Chemical Biology for use of animals for the present study. […] The % stability (% compound remaining after metabolism) was calculated as follows:\n(3) % Compound remaining=100×(peak area of 1 hour sampl/peak area of 0 hour sample)\nFor 0 hour sample, the compound was added after addition of ice-cold acetonitrile and then vortexed, followed by centrifugation as mentioned above."}, "[10]": {"experiment": "Parallel artificial membrane permeability assay (PAMPA)", "format": "in vitro ADME", "procedure": "Millipore acceptor and donor plate (Cat No: MAPB310 and MASSACCEPTOR) were used in the study. […] Incubation was carried out for 16 hours at room temperature in a water-saturated chamber to avoid evaporation from donor wells. […] To a 200 μl acceptor sample, a 100 μl donor solution was added, mixed properly, and this mixture was termed as “equilibrium.” The absorbance of the equilibrium was also determined. Five standard compounds of different permeability (high: […] (1) Calculation: […] where C = (VD × VA)/[(VD + VA)× Area (cm^2) × porosity × time (seconds)] Where VD = volume of donor (ml), VA = volume of acceptor (ml). A linear graph was plotted with observed and reported values for the standard drugs. The experimental method was considered valid for permeability ranking if linear correlation coefficient (R^2) was more than 0.95."}, "Leishmania donovani [11]": {"test_system": "Leishmania donovani", "parameters": "method as in ref 11, 12 = [11]; PMID 11937327; doi:10.1016/s0968-0896(02)00046-9; 11 Sahu NP Pal C Mandal NB Banerjee S Raha M Kundu AP Synthesis of a novel quinoline derivative, 2-(2-Methylquinolin-4ylamino)-N-phenylacetamide: A potential antileishmanial agent Bioorg Med Chem 2002 || [12]; 12 Sahu NP Mondal NB Banerjee S Raha R Chakraborti G Basu A Indian patent No. 191818 2004", "details": "cited from earlier work"}, "[12]": {"experiment": "Chemical stability in PBS pH 7.4, simulated gastric fluid and simulated intestinal fluid", "format": "physicochemical", "procedure": "A 100-μM solution of S-4 was prepared in phosphate buffered saline (PBS), pH 7.4, from a stock of 25 mM in DMSO and was kept at 25°C for 24 hours. Percentage stability was determined based on chromatographic peak area of the sample kept for 24 hours and that of 0 hour (freshly prepared and injected) sample. All the samples were prepared in triplicate.\nSimilar studies were carried out at 37°C replacing PBS with simulated gastric fluid (SGF) and simulated intestinal fluid (SIF) which were prepared following United States Pharmacopoeia, and stability was checked for upto 2 hours for SGF and 4 hours for SIF."}, "[13]": {"details": "simulated gastric fluid (SGF), 37°C, 2 hours"}, "[14]": {"details": "simulated intestinal fluid (SIF), 37°C, 4 hours"}}, "note": "“And” between values parts separate entries of the source, which are not always exact repeats. Equal entries are not always repeated. Structures can show the parent of a compound that is named as a salt."}
{"smiles": "O=C(O)Cc1ccccc1Nc1c(Cl)cccc1Cl", "note": "[Diclofenac Sodium]", "values": [{"measurement": "Solubility, reported value", "setting": "[1]", "result": "> 400", "unit": "µM"}, {"measurement": "solubility at 2 h", "setting": "physchem", "result": "> 400", "unit": "µM"}]}
{"smiles": "CN(Cc1cnc2nc(N)nc(N)c2n1)c1ccc(C(=O)N[C@@H](CCC(=O)O)C(=O)O)cc1", "note": "[Methotrexate]", "values": [{"measurement": "fraction unbound at 6 h, 10 μM", "setting": "[2]", "result": 0.493}, {"measurement": "Percentage of plasma protein binding, reported value", "setting": "human plasma protein", "result": "35-57%"}, {"measurement": "Permeability ranking of standard compounds", "setting": "[3]", "result": "very low"}]}
{"smiles": "CC/C(=C(/CC)c1ccc(O)cc1)c1ccc(O)cc1", "note": "[Diethylstilbesterol]", "values": [{"measurement": "Solubility, reported value", "setting": "[1]", "result": "5 to 20", "unit": "µM"}, {"measurement": "Solubility", "setting": "physchem; pH 7.4", "result": "18.94 ± 1.00", "unit": "µM"}]}
{"smiles": "Cn1c(=O)c2c(ncn2C)n(C)c1=O", "note": "[Caffeine]", "values": [{"measurement": "fraction unbound at 6 h, 10 μM", "setting": "[2]", "result": 0.593}, {"measurement": "Percentage of plasma protein binding, reported value", "setting": "human plasma protein", "result": "29-43%"}]}
{"smiles": "COCCc1ccc(OCC(O)CNC(C)C)cc1", "note": "(centres unmarked) [Metoprolol tartrate]", "values": [{"measurement": "logD", "setting": "[4]", "result": -0.25}, {"measurement": "Log D octanol/PBS, reported value", "setting": "[5]", "result": "−0.30"}]}
{"smiles": "NC(=O)N1c2ccccc2C=Cc2ccccc21", "note": "[carbamazepine]", "values": [{"measurement": "Permeability ranking of standard compounds", "setting": "[3]", "result": "high"}]}
{"smiles": "CNC(=C[N+](=O)[O-])NCCSCc1ccc(CN(C)C)o1", "note": "[Ranitidine HCl]", "values": [{"measurement": "fraction unbound at 6 h, 10 μM", "setting": "[2]; plasma", "result": 0.852}, {"measurement": "Percentage of plasma protein binding, reported value", "setting": "human plasma protein", "result": "10-19%"}]}
{"smiles": "CC(=O)CC(c1ccccc1)c1c(O)c2ccccc2oc1=O", "note": "(centres unmarked) [Warfarin]", "values": [{"measurement": "Log D cyclohexane/PBS, reported value", "setting": "[6]", "result": "−1.31"}, {"measurement": "fraction unbound at 6 h, 10 μM", "setting": "[2]; plasma", "result": 0.0179}, {"measurement": "Percentage of plasma protein binding, reported value", "setting": "human plasma protein", "result": 99, "unit": "%"}, {"measurement": "logD hydrocarbon water", "setting": "[7]", "result": -1.28}, {"measurement": "Permeability ranking of standard compounds", "setting": "[3]", "result": "medium"}]}
{"smiles": "O=C(Nc1ccccc1Cc1nc2ccccc2cc1-c1c[nH]c2ccccc12)C(Cl)Cl", "note": "[2-(2′′-dichloroacetamidobenzyl)-3-(3′-indoyl)-quinoline]", "values": [{"measurement": "Antileishmanial activity", "setting": "Leishmania donovani [8]", "result": "significant antileishmanial activity"}]}
{"smiles": "Cc1cc(NCC(=O)Nc2ccccc2)c2ccccc2n1", "note": "[S-4, 2-(2-methylquinolin-4-ylamino)-N-phenylacetamide]", "values": [{"measurement": "Toxicity to different organs", "setting": "[9]", "result": "no alarming sign to different organs tested"}, {"measurement": "fraction unbound at 6 h, 10 μM", "setting": "[2]", "result": 0.212}, {"measurement": "% Parent compound remaining, result", "setting": "rat liver microsomes", "result": "36.07% and 36.07 ± 4.15%"}, {"measurement": "solubility at 2 h", "setting": "physchem; PBS", "result": "300 ± 6.42", "unit": "µM"}, {"measurement": "logD hydrocarbon water", "setting": "[7]; cyclohexane/PBS", "result": -1.33}, {"measurement": "logD", "setting": "[4]", "result": 0.54}, {"measurement": "Papp at 16 h, 250 μM", "setting": "[10]; PBS pH 7.4 (5% DMSO), 16 hours, room temperature, ± SEM, read-out: Log Pe (converted)", "result": 2.95, "unit": "×10⁻⁶ cm/s"}, {"measurement": "Permeability ranking", "setting": "[10]; ranking against standard drugs", "result": "medium"}, {"measurement": "Reduction of parasite burden in spleen and liver compared with sodium antimony gluconate", "setting": "Leishmania donovani [11]", "result": "significantly more effective than sodium antimony gluconate"}, {"measurement": "Stability (% remaining)", "setting": "[12]; 100 μM in PBS pH 7.4, 25°C, 24 hours, HPLC", "result": "99.16 ± 1.32", "unit": "%"}, {"measurement": "remaining at 24 h, 100 μM", "setting": "[12]; phosphate buffered saline, pH 7.4, 100 μM in PBS pH 7.4, 25°C, 24 hours, HPLC", "result": "> 95", "unit": "%"}, {"measurement": "Stability (% remaining)", "setting": "[12]; [13]", "result": "101.19± 0.76", "unit": "%"}, {"measurement": "remaining at 2 h, 100 μM", "setting": "[12]; [13]", "result": "> 95", "unit": "%"}, {"measurement": "Stability (% remaining)", "setting": "[12]; [14]", "result": "97.70 ± 0.15", "unit": "%"}, {"measurement": "remaining at 4 h, 100 μM", "setting": "[12]; [14]", "result": "> 95", "unit": "%"}]}
{"smiles": "O=C(CCCN1CCC(O)(c2ccc(Cl)cc2)CC1)c1ccc(F)cc1", "note": "[Haloperidol]", "values": [{"measurement": "Log D cyclohexane/PBS, reported value", "setting": "[6]", "result": 0.46}, {"measurement": "Solubility, reported value", "setting": "[1]", "result": "40 to 63", "unit": "µM"}, {"measurement": "solubility at 2 h", "setting": "physchem", "result": "48.5 ± 3.21", "unit": "µM"}, {"measurement": "logD hydrocarbon water", "setting": "[7]; cyclohexane/PBS", "result": 0.52}]}
{"smiles": "CC(C)NCC(O)COc1cccc2ccccc12.Cl", "note": "(centres unmarked) [Propranolol HCl]", "values": [{"measurement": "Percentage of plasma protein binding, reported value", "setting": "human plasma protein", "result": "80-93%"}, {"measurement": "Permeability ranking of standard compounds", "setting": "[3]", "result": "high"}]}
